Experimental data reported in BindingDB's records for PubMed 8169832 (University of Pennsylvania, 1994).

The molecules below were run against 5-hydroxytryptamine receptor 6 (Mus musculus, UniProt Q9R1C8).
Sequence of 5-hydroxytryptamine receptor 6 (Q9R1C8 whole entry): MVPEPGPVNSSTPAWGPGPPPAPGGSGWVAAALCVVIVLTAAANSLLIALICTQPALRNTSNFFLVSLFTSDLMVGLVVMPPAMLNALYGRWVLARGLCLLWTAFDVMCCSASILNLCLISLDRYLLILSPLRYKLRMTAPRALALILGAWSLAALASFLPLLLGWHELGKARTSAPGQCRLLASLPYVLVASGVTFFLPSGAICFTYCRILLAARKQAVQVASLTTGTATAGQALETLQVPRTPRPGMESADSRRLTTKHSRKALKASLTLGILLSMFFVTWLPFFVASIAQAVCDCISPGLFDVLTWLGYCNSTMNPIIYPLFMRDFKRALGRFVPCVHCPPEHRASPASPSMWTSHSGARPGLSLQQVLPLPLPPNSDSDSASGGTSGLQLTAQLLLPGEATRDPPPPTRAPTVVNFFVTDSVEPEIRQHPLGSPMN

Q: With `Cc1[nH]c2ccc(O)cc2c1CCN` as the molecule, how does the Ki read?
A: 398 nM

Q: How did the Ki turn out when `O=C(c1ccc(F)cc1)C1CCN(CCn2c(=O)[nH]c3ccccc3c2=O)CC1` [3-(2-{4-[(4-fluorophenyl)carbonyl]piperidin-1-yl}ethyl)-1,2,3,4-tetrahydroquinazoline-2,4-dione] was run?
A: 1000 nM

Q: How did the Ki turn out when `Cn1cc(CCN)c2cc(O)ccc21` [5-HT,omega-N-Me] was run?
A: 2000 nM

Q: How did the Ki turn out when `CN1CCN(C2=c3ccccc3=Nc3ccc(Cl)cc3N2)CC1` [6-chloro-10-(4-methylpiperazin-1-yl)-2,9-diazatricyclo[9.4.0.0^{3,8}]pentadeca-1,3(8),4,6,10,12,14-heptaene] was run?
A: 31.6 nM

Q: For `CN1CCN2c3ccccc3Cc3ccccc3[C@H]2C1` [MIANSERIN (+)], which Ki is on record?
A: 19.9 nM

Q: With `CN1CCc2cc(Cl)c(O)cc2[C@@H](c2ccccc2)C1` [SCH 23390,R(+)] as the molecule, how does the Ki read?
A: 2510 nM

Q: How did the Ki turn out when `NCCc1c[nH]c2ccc(O)cc12` [[3H]-5-HT] was run?
A: 39.8 nM

Q: For `CSc1ccc2c(c1)C(N1CCN(C)CC1)Cc1ccccc1S2` (stereo not drawn) [methanesulfonic acid;1-methyl-4-(3-methylsulfanyl-5,6-dihydrobenzo[b][1]benzothiepin-5-yl)piperazine], which Ki is on record?
A: 1.99 nM
